{"source": "patent EP0570920A1", "about": "“Probe for cannabinoid receptors” (YISSUM RESEARCH AND DEVELOPMENT COMPANY OF THE HEBREW …, priority 1992, dated 1993)", "key": {"[1]": {"conditions": "cited from earlier work"}, "[2]": {"conditions": "pigeons; cited from earlier work"}, "cannabinoid receptor [3]": {"target": "T1, cannabinoid receptor (Rattus norvegicus, UniProt P20272)", "T1 construct": "a synaptosomal membrane preparation derived from rat whole brain, without brainstem; from tissue; host or cells: rat whole brain without brainstem, synaptosomal membranes", "T1 sequence (P20272 whole entry)": "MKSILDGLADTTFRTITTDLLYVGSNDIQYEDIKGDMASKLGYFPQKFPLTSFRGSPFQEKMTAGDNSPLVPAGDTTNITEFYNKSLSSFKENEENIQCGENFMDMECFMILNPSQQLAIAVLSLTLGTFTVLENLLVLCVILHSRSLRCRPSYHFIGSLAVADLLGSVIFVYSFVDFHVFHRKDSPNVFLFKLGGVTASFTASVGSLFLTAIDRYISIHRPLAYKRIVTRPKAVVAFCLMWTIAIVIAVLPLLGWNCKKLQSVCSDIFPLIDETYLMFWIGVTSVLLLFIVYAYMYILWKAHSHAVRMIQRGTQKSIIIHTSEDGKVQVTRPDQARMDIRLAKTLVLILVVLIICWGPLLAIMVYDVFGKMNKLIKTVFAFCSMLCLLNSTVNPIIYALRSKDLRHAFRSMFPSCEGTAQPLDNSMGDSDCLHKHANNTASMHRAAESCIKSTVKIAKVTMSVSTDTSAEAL", "experiment": "Ligand binding assay with [³H]7, centrifugation assay on synaptosomal membrane preparation"}, "cannabinoid receptor [4]": {"target": "T1, cannabinoid receptor", "conditions": "cited from earlier work"}, "[5]": {"experiment": "Discrimination tests / in vivo experiment comparing (3), (7) and Δ¹-THC"}, "[6]": {"conditions": "cited from earlier work", "remark": "listed apart in the source"}, "[7]": {"conditions": "in vivo; cited from earlier work"}, "[8]": {"experiment": "Solubility of drug in BSA vehicle for binding assay", "conditions": "at concentrations above 5 uM in 5 mg/ml BSA"}}, "note": "pKd, pKi: −log10 of the molar value. Like-named read-outs stand apart in the source and are kept apart here.", "data": [{"molecule": "7-hydroxyhexahydrocannabinols [Compound 5b]", "values": [{"measurement": "times more active than Δ¹-THC in discrimination tests", "setting": "[1]; depending on the animal used (pigeon or rat) and on the timing of measurement", "result": "3-17 times"}, {"measurement": "activity in discrimination tests relative to axial epimer (6b)", "setting": "[1]; rat, in vivo", "result": "considerably more active"}]}, {"molecule": "CCCCCCC(C)(C)c1cc(O)c2c(c1)OC(C)(C)[C@@H]1CC=C(CO)C[C@@H]21", "note": "[Compound 3]", "values": [{"measurement": "times more potent than Δ¹-THC in drug discrimination", "setting": "[2]", "result": 80, "unit": "times"}, {"measurement": "pKi", "setting": "cannabinoid receptor [3]", "result": 9.73}, {"measurement": "potency ratio of 3 to 4 for binding to the cannabinoid receptor", "setting": "cannabinoid receptor [4]", "result": "circa 1500"}, {"measurement": "competition for the specific binding of [³H]1", "setting": "cannabinoid receptor [4]; membranes from rat brain", "result": "completes fully"}, {"measurement": "pKi", "setting": "cannabinoid receptor [4]; read-out: K, heterologous displacement of [³H]1, membranes from rat brain", "result": 9.63}, {"measurement": "activity in the discrimination tests, (3) versus (7)", "setting": "[5]", "result": "essentially equivalent in activity"}, {"measurement": "times more potent than Δ¹-THC in pharmacological tests", "setting": "[6]; various animal species", "result": "100-800 times"}]}, {"molecule": "CCCCCCC(C)(C)c1cc(O)c2c(c1)OC(C)(C)[C@H]1CC=C(CO)C[C@H]21", "note": "[Compound 4]", "values": [{"measurement": "pKi", "setting": "cannabinoid receptor [3]", "result": 6.33}, {"measurement": "fold less potent than its enantiomer compound 3 (HU-210) in binding", "setting": "cannabinoid receptor [3]; displacement of [³H]7", "result": 2500, "unit": "fold"}, {"measurement": "potency relative to (3) in in vivo pharmacological tests", "setting": "[6]; in vivo", "result": "several thousand times less potent"}]}, {"molecule": "CCCCCc1cc(O)c2c(c1)OC(C)(C)C1CCC(C)CC21", "note": "(stereo not drawn) [Compound 5a]", "values": [{"measurement": "cannabimimetic activity relative to axial epimer (6a)", "setting": "[7]", "result": "more active"}]}, {"molecule": "CCCCCCC(C)(C)c1cc(O)c2c(c1)OC(C)(C)C1CCC(CO)CC21", "note": "(stereo not drawn) [Compound 7, 7-hydroxy-hexahydrocannabinol-5'-dimethyl heptyl homologue]", "values": [{"measurement": "times more potent than (3) in the binding experiments", "setting": "cannabinoid receptor [3]", "result": "about 4 times"}, {"measurement": "times more potent than Δ¹-THC on binding", "setting": "cannabinoid receptor [3]", "result": "about 1000 times"}, {"measurement": "binding potency compared with CP-55940", "setting": "cannabinoid receptor [3]; Fig. 1", "result": "more potent than CP-55940"}, {"measurement": "binding capacity", "setting": "cannabinoid receptor [3]; homologous displacement experiments with [³H]7", "result": "4.41 ± 0.08", "unit": "pmol/mg protein"}, {"measurement": "pKd", "setting": "cannabinoid receptor [3]; homologous displacement studies, [³H]7, rat whole brain synaptosomal membranes", "result": 10.35}, {"measurement": "activity in the discrimination tests, (3) versus (7)", "setting": "[5]", "result": "essentially equivalent in activity"}, {"measurement": "times more potent than Δ¹-THC in the in vivo experiment", "setting": "[5]", "result": 125, "unit": "times"}]}, {"molecule": "CCCCCc1cc(O)c2c(c1)OC(C)(C)[C@@H]1CCC(C)=C[C@@H]21", "note": "[Δ¹-THC, Δ-tetrahydrocannabonol]", "values": [{"measurement": "solubility in vehicle", "setting": "[8]", "result": "partial insolubility"}]}]}
